Measured values from PubChem BioAssay AID1259407 (Chemical Carcinogenesis Research Information System (CCRIS), 2018).
Calls of active or inactive are those of the source. The rule behind the calls is not given here.

Test system: CCRIS mutagenicity, Ames/micronucleus/aberration tests
Assay: CCRIS mutagenicity studies
[1] = Test System: AMES SALMONELLA TYPHIMURIUM, Strain/Indicator: TA1535, Metabolic Activation: NONE, Method: PREINCUBATION
[2] = Test System: AMES SALMONELLA TYPHIMURIUM, Strain/Indicator: TA98, Metabolic Activation: NONE, Method: PREINCUBATION
[3] = Test System: AMES SALMONELLA TYPHIMURIUM, Strain/Indicator: TA100, Metabolic Activation: NONE, Method: PREINCUBATION
[4] = Test System: AMES SALMONELLA TYPHIMURIUM, Strain/Indicator: TA1537, Metabolic Activation: NONE, Method: PREINCUBATION
[5] = Test System: AMES SALMONELLA TYPHIMURIUM, Strain/Indicator: TA98, Metabolic Activation: RAT, LIVER, S-9, AROCLOR 1254, Method: PREINCUBATION
[6] = Test System: AMES SALMONELLA TYPHIMURIUM, Strain/Indicator: TA100, Metabolic Activation: RAT, LIVER, S-9, AROCLOR 1254, Method: PREINCUBATION
[7] = Test System: AMES SALMONELLA TYPHIMURIUM, Strain/Indicator: TA98, Metabolic Activation: NONE, Method: STANDARD PLATE
[8] = Test System: AMES SALMONELLA TYPHIMURIUM, Strain/Indicator: TA100, Metabolic Activation: NONE, Method: STANDARD PLATE

Measured: mutagenic call

CN(Cc1ccccc1)N=O
active: Test System: AMES SALMONELLA TYPHIMURIUM, Strain/Indicator: TA100, Metabolic Activation: RAT, LIVER, S-9, AROCLOR 1254, Method: STANDARD PLATE active; positive | Test System: AMES SALMONELLA TYPHIMURIUM, Strain/Indicator: TA100, Metabolic Activation: RAT, LIVER, S-9, ETHANOL, Method: STANDARD PLATE active; positive | Test System: AMES SALMONELLA TYPHIMURIUM, Strain/Indicator: TA100, Metabolic Activation: RAT, LIVER, S-9, KC500 OR PHENOBARBITAL, Method: LIQUID SUSPENSION active; positive | Test System: AMES SALMONELLA TYPHIMURIUM, Strain/Indicator: TA100, Metabolic Activation: RAT, LIVER, S-9, Method: STANDARD PLATE active; positive | Test System: AMES SALMONELLA TYPHIMURIUM, Strain/Indicator: TA1535, Metabolic Activation: HAMSTER, LIVER, S-9, AROCLOR 1254, Method: STANDARD PLATE active; positive | Test System: AMES SALMONELLA TYPHIMURIUM, Strain/Indicator: TA1535, Metabolic Activation: RAT, LIVER, S-9, AROCLOR 1254, Method: STANDARD PLATE active; positive | Test System: AMES SALMONELLA TYPHIMURIUM, Strain/Indicator: TA1535, Metabolic Activation: RAT, LIVER, S-9, AROCLOR, Method: PREINCUBATION active; positive | Test System: AMES SALMONELLA TYPHIMURIUM, Strain/Indicator: TA1535, Metabolic Activation: RAT, LIVER, S-9, SODIUM PHENOBARBITONE, Method: PREINCUBATION active; positive
inactive: [1] inactive; negative | Test System: AMES SALMONELLA TYPHIMURIUM, Strain/Indicator: TA1535, Metabolic Activation: NONE, Method: STANDARD PLATE inactive; negative | Test System: AMES SALMONELLA TYPHIMURIUM, Strain/Indicator: TA1535, Metabolic Activation: RAT, LIVER, HEPATOCYTES, Method: PREINCUBATION inactive; negative | Test System: AMES SALMONELLA TYPHIMURIUM, Strain/Indicator: TA1535, Metabolic Activation: RAT, LIVER, S-9, ETHANOL, Method: STANDARD PLATE inactive; negative | Test System: AMES SALMONELLA TYPHIMURIUM, Strain/Indicator: TA1535, Metabolic Activation: RAT, LIVER, S-9, Method: PREINCUBATION inactive; negative | Test System: AMES SALMONELLA TYPHIMURIUM, Strain/Indicator: TA1535, Metabolic Activation: RAT, LIVER, S-9, Method: STANDARD PLATE inactive; negative

CCN(CC)CCCN(c1ccccc1)C1Cc2ccccc2C1
inactive: [2] inactive; negative | Test System: AMES SALMONELLA TYPHIMURIUM, Strain/Indicator: TA98, Metabolic Activation: S-9, Method: PREINCUBATION inactive; negative | [3] inactive; negative | Test System: AMES SALMONELLA TYPHIMURIUM, Strain/Indicator: TA100, Metabolic Activation: S-9, Method: PREINCUBATION inactive; negative | [1] inactive; negative | Test System: AMES SALMONELLA TYPHIMURIUM, Strain/Indicator: TA1535, Metabolic Activation: S-9, Method: PREINCUBATION inactive; negative | [4] inactive; negative | Test System: AMES SALMONELLA TYPHIMURIUM, Strain/Indicator: TA1537, Metabolic Activation: S-9, Method: PREINCUBATION inactive; negative | Test System: AMES SALMONELLA TYPHIMURIUM, Strain/Indicator: TA1538, Metabolic Activation: NONE, Method: PREINCUBATION inactive; negative | Test System: AMES SALMONELLA TYPHIMURIUM, Strain/Indicator: TA1538, Metabolic Activation: S-9, Method: PREINCUBATION inactive; negative | Test System: E. COLI, Strain/Indicator: WP2 UVRA, Metabolic Activation: NONE, Method: PREINCUBATION inactive; negative | Test System: E. COLI, Strain/Indicator: WP2 UVRA, Metabolic Activation: S-9, Method: PREINCUBATION inactive; negative

CC(I)C1OCC(CO)O1 (stereo unspecified)
inactive: Test System: AMES SALMONELLA TYPHIMURIUM, Strain/Indicator: TA98, Metabolic Activation: HAMSTER, LIVER, S-9, AROCLOR 1254, Method: PREINCUBATION inactive; negative | [2] inactive; negative | [5] inactive; negative | Test System: AMES SALMONELLA TYPHIMURIUM, Strain/Indicator: TA1537, Metabolic Activation: HAMSTER, LIVER, S-9, AROCLOR 1254, Method: PREINCUBATION inactive; negative | [4] inactive; negative | Test System: AMES SALMONELLA TYPHIMURIUM, Strain/Indicator: TA1537, Metabolic Activation: RAT, LIVER, S-9, AROCLOR 1254, Method: PREINCUBATION inactive; negative | Test System: UDS RAT HEPATOCYTES, Metabolic Activation: NONE, Method: AUTORADIOGRAPHY inactive; negative
active: Test System: AMES SALMONELLA TYPHIMURIUM, Strain/Indicator: TA100, Metabolic Activation: HAMSTER, LIVER, S-9, AROCLOR 1254, Method: PREINCUBATION active; positive | [3] active; positive | [6] active; positive | Test System: AMES SALMONELLA TYPHIMURIUM, Strain/Indicator: TA1535, Metabolic Activation: HAMSTER, LIVER, S-9, AROCLOR 1254, Method: PREINCUBATION active; positive | [1] active; positive | Test System: AMES SALMONELLA TYPHIMURIUM, Strain/Indicator: TA1535, Metabolic Activation: RAT, LIVER, S-9, AROCLOR 1254, Method: PREINCUBATION active; positive | Test System: MOUSE LYMPHOMA, Strain/Indicator: L5178Y (TK+/TK-), Metabolic Activation: NONE, Method: SUSPENSION/PLATE active; positive

Nc1ccc2c(n1)[nH]c1ccccc12
active: Test System: AMES SALMONELLA TYPHIMURIUM, Strain/Indicator: TA98, Metabolic Activation: MONKEY, LIVER, S-9, Method: PREINCUBATION active; positive | [5] active; positive | [6] active; positive | Test System: AMES SALMONELLA TYPHIMURIUM, Strain/Indicator: YG1019, Metabolic Activation: RAT LIVER S-9, AROCLOR, Method: PREINCUBATION active; positive

CC1(C)[C@H](C=C(Cl)Cl)[C@H]1C(=O)OCc1cccc(Oc2ccccc2)c1
inactive: Test System: AMES SALMONELLA TYPHIMURIUM, Strain/Indicator: TA97, Metabolic Activation: NONE, Method: STANDARD PLATE inactive; negative | Test System: AMES SALMONELLA TYPHIMURIUM, Strain/Indicator: TA97, Metabolic Activation: RAT, LIVER, S-9, PHENOBARBITONE, Method: STANDARD PLATE inactive; negative | [7] inactive; negative | Test System: AMES SALMONELLA TYPHIMURIUM, Strain/Indicator: TA98, Metabolic Activation: RAT, LIVER, S-9, PHENOBARBITONE, Method: STANDARD PLATE inactive; negative | [8] inactive; negative | Test System: AMES SALMONELLA TYPHIMURIUM, Strain/Indicator: TA100, Metabolic Activation: RAT, LIVER, S-9, PHENOBARBITONE, Method: STANDARD PLATE inactive; negative | Test System: AMES SALMONELLA TYPHIMURIUM, Strain/Indicator: TA104, Metabolic Activation: NONE, Method: STANDARD PLATE inactive; negative | Test System: AMES SALMONELLA TYPHIMURIUM, Strain/Indicator: TA104, Metabolic Activation: RAT, LIVER, S-9, PHENOBARBITONE, Method: STANDARD PLATE inactive; negative

CN1CCN(c2ccc3nc(CCCc4ccc5nc(-c6ccc(N(CCCl)CCCl)cc6)[nH]c5c4)[nH]c3c2)CC1
active: Test System: AMES SALMONELLA TYPHIMURIUM, Strain/Indicator: TA102, Metabolic Activation: NONE, Method: STANDARD PLATE active; positive
inactive: [7] inactive; negative | [8] inactive; negative

COC(=O)[C@H]1CS[C@H]2C(Cl)=C(Cl)C(=O)N12
active: [8] active; positive
